Read-outs that look alike come from different tables or passages of the source.

A short description of series [1]: HPLC stability assay of prodrugs in buffers pH 3, 5, 7, 7.4 (PBS), 9 at 37 °C for 72 h without trigger. Format: physicochemical. The following applies: for stability of the prodrug without triggering enzyme: 37 °C, 72 h, pH 3–9; for premature lapachone release, percent of total prodrug: 72 h at 37 °C, no H2O2. Here is the method: The diastereomeric mixture of each β-glucuronide–PHB-β-lapachone prodrug (16a–j) and PAB derivative 22 were then tested for stability in citrate-phosphate buffers across a range of pHs (3, 5, 7, 7.4 (PBS), 9) via an HPLC stability assay. For derivatives 16a, 16b, 16d, 16e, 16h, and 16j, when no β-glucuronidase enzyme was added, both diastereomers of 16 were fully stable at 37 °C for 72 h (Figures a,d, S63, S64, S66–68, S71, and S73). […] This premature release was greatest at acidic pH 3 for 16g, with very minimal lapachone release detected at pH 5–9 (Figure c). The released lapachone was quantified and compared to the starting concentration of each prodrug to calculate the percent of the prodrug that had been prematurely released (Figures f,g, S76). […] Therefore, a trade-off exists between ring activation, improving the release rate from 3 while also decreasing prodrug stability, and it rendered 16g clinically disadvantageous.  5 Stability of prodrugs is pH dependent. The representative HPLC traces for (a) a stable prodrug 16a and (b) an unstable prodrug 16g are shown after incubation at 37 °C in pH 7.4 PBS buffer. […] (c) The area of the lapachone peak for 16g normalized to the IS was plotted, displaying substantial growth over time at pH 3. […] For panels c–g, each value is plotted as the mean ± SD of three replicates. The HPLC traces (Figures S50–S62) and peak area graphs (Figures S63–S75) for all other derivatives can be found in the Supporting Information. The stability of 26 was also evaluated from pH 3–9 (Figures d,f–h S86–S87). […] This degradation was the largest at pH 9, with a measurable decrease in the prodrug peak area after 72 h (Figure g). The lapachone released after 72 h was quantified using a standard curve (Tables S6.1–S6.2). At pH 3 and 5, approximately 0.2% of the total prodrug lapachone had been released.

The subject of a further series is PANC-1. The experiment in a line: PDAC cell viability after 72 h of treatment, PANC-1. Format: cell-based. As to the method:
(§1) All ortho-quinone prodrug derivatives were tested on two pancreatic cancer cell lines, PANC-1 and AsPC-1, to assess efficacy in cell killing (Figures , S88–89, S91, Tables , and S8.1). Exogenous β-glucuronidase was added to the cell media to mimic the extracellular enzyme present in the TME. […] Those derivatives with release rates slower than that of 16a, like 16e, had less efficacy in cells comparatively (Table ).
(§2) 7 PDAC cell viability with prodrug treatment. Representative PANC-1 (a) and AsPC-1 (b) cell viability data of four β-lapachone prodrug derivatives after 72 h of treatment with exogenous β-glucuronidase added. Panels (c, d) show the toxicity of functional prodrugs up to 100 μM in PANC-1 (c) and AsPC-1 (d) cells without exogenous β-glucuronidase enzyme present after 72 h incubation.
(§3) To assess the TW of the prodrug derivatives, we tested each of them in both the PANC-1 and AsPC-1 cell lines at up to 100 μM without the β-glucuronidase enzyme present. In agreement with the HPLC stability assay data, we saw no toxicity in all stable prodrug derivatives up to this concentration (Figure c,d). […] In comparison, all the stable glucuronide prodrug derivatives retained 100% viability at 100 μM. […] It is generally considered that a drug has a good therapeutic safety profile if the TI is greater than 10, which our best derivatives far exceed, signaling that our prodrug is safe to deliver systemically in future in vivo experiments and should not cause any adverse effects in areas where β-glucuronidase is not overexpressed. ,

The next series concerns AsPC-1. Briefly: PDAC cell viability after 72 h of treatment, AsPC-1. The note with it: for IC50: Homo sapiens. It is filed as cell-based. Here is the method:
as §1, §2, §3

Series [2] is described as follows: Release of β-lapachone (1) from deprotected PHB/PAB linkers (3 or 25) in citrate-phosphate buffers pH 3–10, analytical HPLC. It is filed as physicochemical. The note with it: 3f vs 3a; 25 vs 4. As to the method:
First, the purified mixture of two prodrug diastereomers (16a–j) for each PHB derivative was incubated with β-glucuronidase. This enabled full removal of the glucuronide moiety from both diastereomers of the prodrug within 2–15 min, leaving a mixture of two PHB-β-lapachone enantiomers (3a–j, Figure c). For PAB compound 22, penicillin G amidase was used in place of β-glucuronidase to give a mixture of two PAB-β-lapachone enantiomers (25). The 3 (or 25) solution was then spiked into citrate-phosphate buffers from pH 3–10, and release of 1 from 3 (or 25) was measured at various time points by analytical HPLC. A single peak for the two enantiomers of 3 was observed after glucuronide removal, and thus the measured k obs was for both enantiomers in the mixture.
3 Release rate comparison for PHB and PAB prodrugs. The mechanisms of release for the β-glucuronide–PHB prodrug derivatives (a) and the PAB derivative (b) are shown. β-glucuronidase or penicillin G amidase deprotects the PHB or PAB linkers, yielding 3 or 25, respectively. A 1,6-elimination then occurs, releasing the hydroquinone form of β-lapachone, which then oxidizes into the ortho-quinone. (c) The substituents on the PHB/PAB linker for each derivative are shown and classified into which strategy they employed, lowering phenolate pK a or stabilizing the elimination TS. BLap = β-lapachone in its α-hydroxy ketol form (refer to panel a). The predicted pK a values are also shown, calculated using MolGpKa. (d) The representative HPLC traces of a release experiment for 3g at pH 7 are shown (RT: retention time) normalized to the warfarin (WF) internal standard (IS, RT = 11.6 min). The peak for 3g (RT = 12.5 min) decreases while the peak for 1 (RT = 10.8 min) increases over time. The traces for all other derivatives at each pH are included in Figures S10–S20, S34–S45. (e) The calculated k obs values from these release kinetic experiments for each PHB derivative are plotted versus pH on a logarithmic scale. Derivatives 3a–e were designed to lower the PHB phenol pK a, while derivatives 3f–j were designed to stabilize the 1,6-elimination TS. (f) The first-order reaction rate constants of the PAB derivatives 4 (pink) and 25 (purple) are plotted together with 3a (black) and the best-performing PHB derivatives 3f (cyan) and 3i (dark green) for direct comparison. The derivations of the plotted first-order k obs values from linearized initial velocities measured in triplicate are shown in Figures S23–S33. […]
Over time, the intensity of the 3/25 peak decreased, while the intensity of the 1 peak increased (Figure d). A standard curve for β-lapachone (Figure S22) was prepared, enabling quantification of the released β-lapachone.

Where [3] appears, read: Homo sapiens, PANC-1, exogenous β-glucuronidase added, average ± SD of biological replicates, read-out: PANC-1 IC50.
Setting [4] is: ASPC1, exogenous β-glucuronidase added, average ± SD of biological replicates, read-out: AsPC-1 IC50.
The mark [5] stands for this setting: ASPC1, exogenous β-glucuronidase added, representative experiment, read-out: IC50 on AsPC-1, representative viability data (Figure 7b).
Setting [6] is: exogenous β-glucuronidase added, average ± SD of biological replicates.
Where [7] appears, read: Homo sapiens, PANC-1, exogenous β-glucuronidase added, representative experiment, read-out: IC50 on PANC-1, representative viability data (Figure 7a).

As usually defined, the IC50 is the concentration that gives 50% inhibition. In the case of `COCCOc1cc(O[C@@H]2O[C@H](C(=O)O)[C@@H](O)[C@H](O)[C@H]2O)ccc1CC1(O)C(=O)C2=C(OC(C)(C)CC2)c2ccccc21` (some centres unmarked) [16j], the “stability of the prodrug without triggering enzyme” value in series [1] is “fully stable”. Besides, the values for the IC50 in the series on PANC-1 (setting [3]) and with AsPC-1 (setting [4]) were 1.1 ± 0.4 µM and 2.8 ± 1 µM, respectively.

On to `COc1cc(O)ccc1CC1(O)C(=O)C2=C(OC(C)(C)CC2)c2ccccc21` (centres unmarked) [3f], for which the “release rate faster than unsubstituted parent” value in series [2] is “around 2 orders of magnitude”.

Take `CC1(C)CCC2=C(O1)c1ccccc1C(O)(Cc1c(F)cc(O[C@@H]3O[C@H](C(=O)O)[C@@H](O)[C@H](O)[C@H]3O)cc1F)C2=O` (some centres unmarked) [16d]: the “stability of the prodrug without triggering enzyme” value in series [1] is on record as “fully stable”. The IC50 in the series on PANC-1 (setting [3]) was determined as 21 ± 3 µM.

On to `COc1cc(CC2(O)C(=O)C3=C(OC(C)(C)CC3)c3ccccc32)cc(OC)c1O[C@@H]1O[C@H](C(=O)O)[C@@H](O)[C@H](O)[C@H]1O` (some centres unmarked) [16h], for which, in series [1], the “stability of the prodrug without triggering enzyme” value is given as “fully stable”. Moreover, the IC50 stood at 1.2 ± 0.4 µM in the series on PANC-1 (setting [3]) and 3.2 ± 1.7 µM in the series on AsPC-1 (setting [4]).

As to `CC1(C)CCC2=C(O1)c1ccccc1C(O)(Cc1ccccc1)C2=O` (centres unmarked) [compound 27, reference compound], the IC50 was determined as 70 µM with PANC-1 (exogenous β-glucuronidase added, average ± SD of biological replicates, read-out: PANC-1 IC50) and 70 µM with PANC-1 (no release-triggering enzyme, tested up to 100 μM, read-out: IC50 in PANC-1 without exogenous β-glucuronidase).

On to `CC1(C)CCC2=C(O1)c1ccccc1C(=O)C2=O` [compound 1, β-lapachone, reference compound], for which the concentration for half-maximal inhibition (IC50) is 1.8 ± 0.2 µM in the series with PANC-1 (setting [3]), 5.4 ± 0.7 µM in the series with AsPC-1 (setting [4]) and 4.7 µM in the series on AsPC-1 (setting [5]).

`CC1(C)CCC2=C(O1)c1ccccc1C(O)(Cc1c(F)c(F)c(O[C@@H]3O[C@H](C(=O)O)[C@@H](O)[C@H](O)[C@H]3O)c(F)c1F)C2=O` (some centres unmarked) [16c]: in series [1], the “stability of the prodrug without triggering enzyme” value is listed as “trace β-lapachone release was detected”. Besides, in the series on PANC-1 (setting [6]), the “PANC-1 IC50” value is “Inactive”. Further, the “AsPC-1 IC50” value in the series with AsPC-1 (setting [6]) is on record as “Inactive”.

For the compound `COc1cc(NC(=O)Cc2ccccc2)ccc1CC1(O)C(=O)C2=C(OC(C)(C)CC2)c2ccccc21` (centres unmarked) [compound 22], in series [1], the “stability of the prodrug without triggering enzyme” value is recorded as “trace β-lapachone release was detected”.

For the compound `CC1(C)CCC2=C(O1)c1ccccc1C(O)(Cc1ccc(O[C@@H]3O[C@H](C(=O)O)[C@@H](O)[C@H](O)[C@H]3O)cc1)C2=O` (some centres unmarked) [16a], the “stability of the prodrug without triggering enzyme” value in series [1] is “fully stable”. Besides, the IC50 in the series on PANC-1 (setting [3]) is 9.6 ± 0.9 µM; in the series with PANC-1 (setting [7]) it was 11 µM; with AsPC-1 (setting [4]) it was 19 ± 3 µM; with AsPC-1 (setting [5]) it was 16 µM.

On to `COc1cc(O[C@@H]2O[C@H](C(=O)O)[C@@H](O)[C@H](O)[C@H]2O)cc(OC)c1CC1(O)C(=O)C2=C(OC(C)(C)CC2)c2ccccc21` (mixture of isomers) [16g], for which the “stability of the prodrug without triggering enzyme” value in series [1] is recorded as “trace β-lapachone release was detected”. The IC50 in the series on PANC-1 (setting [3]) is 1.2 ± 0.3 µM; with PANC-1 (Homo sapiens, PANC-1, no enzyme, value printed in the picture, read-out: IC50, prodrug toxicity without β-glucuronidase on PANC-1 (Figure 7c)), 20 µM; in the series on PANC-1 (Homo sapiens, PANC-1, no release-triggering enzyme, tested up to 100 μM, read-out: IC50 in PANC-1 without exogenous β-glucuronidase), 26 ± 6 µM; in the series on AsPC-1 (setting [4]), 1.6 ± 0.6 µM; in the series on AsPC-1 (ASPC1, no enzyme, value printed in the picture, read-out: IC50, prodrug toxicity without β-glucuronidase on AsPC-1 (Figure 7d)) it was 68 µM; in the series with AsPC-1 (ASPC1, no release-triggering enzyme, tested up to 100 μM, read-out: IC50 in AsPC-1 without exogenous β-glucuronidase), 75 ± 7 µM.

Consider `CC1(C)CCC2=C(O1)c1ccccc1C(O)(Cc1ccc(B(O)O)cc1)C2=O` (centres unmarked) [compound 26, reference compound], for which the “premature lapachone release, percent of total prodrug” value was “approximately 0.2%” in series [1] (pH 3); “approximately 0.2%” in series [1] (pH 5); approximately 0.6% in series [1] (pH 7); approximately 2.3% in series [1] (pH 7.4); approximately 10.9% in series [1] (pH 9).

Turning to `CCCN(C)S(=O)(=O)c1cc(CC2(O)C(=O)C3=C(OC(C)(C)CC3)c3ccccc32)ccc1O[C@@H]1O[C@H](C(=O)O)[C@@H](O)[C@H](O)[C@H]1O` (single isomer, unassigned) [16e], the “stability of the prodrug without triggering enzyme” value in series [1] is “fully stable”.

Consider `CC(c1ccc(O[C@@H]2O[C@H](C(=O)O)[C@@H](O)[C@H](O)[C@H]2O)cc1)C1(O)C(=O)C2=C(OC(C)(C)CC2)c2ccccc21` (some centres unmarked) [16i], for which the “stability of the prodrug without triggering enzyme” value in series [1] is recorded as “trace β-lapachone release was detected”. Further, the IC50 in the series with PANC-1 (setting [3]) was 0.8 ± 0.5 µM; in the series on PANC-1 (setting [7]), 0.3 µM; with AsPC-1 (setting [4]) it was 0.9 ± 0.5 µM; in the series on AsPC-1 (setting [5]) it was 0.5 µM.

On to `CC1(C)CCC2=C(O1)c1ccccc1C(O)(Cc1cc(F)c(O[C@@H]3O[C@H](C(=O)O)[C@@H](O)[C@H](O)[C@H]3O)c(F)c1)C2=O` (some centres unmarked) [16b], for which the “stability of the prodrug without triggering enzyme” value in series [1] is recorded as “fully stable”. Besides, the 50% inhibitory concentration (IC50) in the series on PANC-1 (setting [3]) is 11 ± 2 µM; with AsPC-1 (setting [4]), 24 µM.

For the origin of these results see publication PMC12766730, “Controlled Self-Immolative Release of β‑Lapachone via an Optimized para-Hydroxybenzyl Linker for Targeted Pancreatic Cancer Therapy” (Journal of the American Chemical Society, 2025).
